≈ marks a conversion by molar mass, not a printed value. Where two headings read alike, the source gives them in different places.
Key:
[1] = test system: L1210 leukemia; test: Therapeutic effect (survival prolongation) on CDF1 mice bearing L1210 leukemia; assay type: in vivo, mouse (CDF1 mice); conditions: for Survival prolongation rate (T/C %): L1210-bearing CDF1 mice, i.p. every day for 10 days, control = 100; for survival prolongation effect (in words): mice transplanted with leukemia cells
Description: The therapeutic effect of 2-hydroxyaclacinomycin B was studied on CDF1 mice bearing L1210 leukemia. From 24 hours after 1×10^5 L1210 cells/animal were intraperitoneally transplanted to CDF1 mice, 2-hydroxyaclacinomycin B was intraperitoneally given everyday for 10 days. The prolongation of the survival time was calculated relative to the control animals receiving physiological saline as 100. Table 1 compares the in vitro and in vivo activities and toxicities of 2-hydroxyaclacinomycins A, B, and N and aclacinomycin A.

[2] = test system: mouse leukemia cells L1210; test: Growth inhibition of cultured L1210 cells; assay type: cell-based; conditions: for IC50: Mus musculus; for inhibition of growth and nucleic acid synthesis of L1210 cells (in words): mouse leukemia cells L1210
Description: For determination of the 50% growth inhibition concentration (IC50), 5×10^4 L1210 cells/ml (final concentration) were inoculated into RPMI 1640 medium (Rosewell Park Memorial Institutes 1640 medium) containing 20% calf serum. The anthracycline compounds of the present invention were added to give a final concentrations from 0.01 μg/ml to 0.25 μg/ml, while the control contained no drug. After incubation at 37° C. in a carbon dioxide incubator, the cell counts of the test and control cultures were measured for calculation of the IC50 concentration of antibiotic.

[3] = test system: DNA synthesis in L1210 cells; test: DNA synthesis inhibition in cultured L1210 cells (14C-thymidine incorporation); assay type: cell-based; conditions: Mus musculus, 1 h, 60 minutes, 10% calf serum, 37° C., read-out: 50% Inhibition concentration (IC50), DNA synthesis inhibition
Description: (§1) Fifteen minutes after the anthracycline compounds of the present invention were added at varied concentrations, 0.05 μCi/ml (final concentration) of ^14 C-uridine or ^14 C-thymidine was added and cultivated at 37° C. for a further 60 minutes. The incorporation of the radioactive base was stopped by addition of 10% trichloroacetic acid. The acid-insoluble matters were recovered; washed three times with 10-5% trichloroacetic acid; and dissolved in formic acid.

[4] = test system: RNA synthesis in L1210 cells; test: RNA synthesis inhibition in cultured L1210 cells (14C-uridine incorporation); assay type: cell-based, mouse; conditions: for IC50: Mus musculus, 1 h, cultured L1210 cells, 14C-uridine, 60 minutes, 10% calf serum, 37° C., read-out: 50% Inhibition concentration (IC50), RNA synthesis inhibition
Description: as §1

[5] = compared with aclacinomycin A; European Publication No. 30255; cited from earlier work
[6] = cited from earlier work
[7] = test system: Mice; test: Acute toxicity, mice, i.p.
[8] = cultured L1210 cells, RPMI 1640 with 20% calf serum, 37° C., read-out: 50% Inhibition concentration (IC50), growth inhibition

SMILES	Survival prolongation rate (T/C %) ([1]; dose 0.63 mg/kg)	Survival prolongation rate (T/C %) ([1]; dose 1.25 mg/kg)	Survival prolongation rate (T/C %) ([1]; dose 2.5 mg/kg)	Survival prolongation rate (T/C %) ([1]; dose 5 mg/kg)	Survival prolongation rate (T/C %) ([1]; dose 7.5 mg/kg)	Survival prolongation rate (T/C %) ([1]; dose 10 mg/kg)	Survival prolongation rate (T/C %) ([1]; dose 12 mg/kg)	survival prolongation effect (in words) [1]	killing of mouse leukemia cells L1210 (in words) [2]	IC50 [2, 8]	inhibition of growth and nucleic acid synthesis of L1210 cells (in words) [2]	IC50 [3]	IC50 [4]	RNA synthesis versus DNA synthesis inhibition (in words) [4]	antitumor activity (in words) [5]	cardio-toxicity (in words) ([6]; compared with aclacinomycin A, European Publication No. 30255)	Toxicity (acute) [7]	antitumor activity (in words) ([1]; mouse, in vivo)	IC50 ([2]; L1210, read-out: 50% Inhibition concentration (IC50), growth inhibition)	toxicity and cardio-toxicity among hitherto-developed anthracycline antibiotics (in words) ([6]; compared with hitherto-developed anthracycline antibiotics)
CCC1(O)CC(OC2CC(N(C)C)C(OC3CC(O)C(OC4CCC(=O)C(C)O4)C(C)O3)C(C)O2)c2c(cc3c(c2O)C(=O)c2c(O)cc(O)cc2C3=O)C1C(=O)OC (centres unmarked) [2-Hydroxyaclacinomycin A]	124%	148%	176%	218%	220%	158%	120%	excellent survival prolongation effect	kill mouse leukemia cells L1210 at a low concentration	0.04 µg/mL (≈ 0.0483 µM)	markedly inhibit the growth and the nucleic acid synthesis	0.85 µg/mL (≈ 1.03 µM)	0.14 µg/mL (≈ 0.169 µM)	inhibit RNA synthesis more specifically than DNA synthesis	stronger antitumor activity	less cardio-toxic, than aclacinomycin A	50.0	–	–	–
CCC1(O)CC(OC2CC(N(C)C)C(OC3CC4OC5CC(=O)C(C)OC5OC4C(C)O3)C(C)O2)c2c(cc3c(c2O)C(=O)c2c(O)cc(O)cc2C3=O)C1C(=O)OC (centres unmarked) [2-Hydroxyaclacinomycin B, 2-hydroxyaclacinomycin B]	110%	131%	153%	200%	226%	139%	113%	excellent survival prolongation effect	kill mouse leukemia cells L1210 at a low concentration	–	markedly inhibit the growth and the nucleic acid synthesis	1 µg/mL (≈ 1.21 µM)	0.22 µg/mL (≈ 0.266 µM)	inhibit RNA synthesis more specifically than DNA synthesis	–	–	50.0	marked antitumor activity	0.03 µg/mL (≈ 0.0363 µM)	–
CCC1(O)CC(OC2CC(N(C)C)C(OC3CC(O)C(OC4CCC(O)C(C)O4)C(C)O3)C(C)O2)c2c(cc3c(c2O)C(=O)c2c(O)cc(O)cc2C3=O)C1C(=O)OC (centres unmarked) [2-Hydroxyaclacinomycin N, 2-hydroxyaclacinomycin N]	109%	128%	148%	202%	219%	144%	108%	excellent survival prolongation effect	kill mouse leukemia cells L1210 at a low concentration	0.04 µg/mL (≈ 0.0482 µM)	markedly inhibit the growth and the nucleic acid synthesis	1.18 µg/mL (≈ 1.42 µM)	0.18 µg/mL (≈ 0.217 µM)	inhibit RNA synthesis more specifically than DNA synthesis	–	–	45.7	–	–	–
CCC1(O)CC(OC2CC(N(C)C)C(OC3CC(O)C(OC4CCC(=O)C(C)O4)C(C)O3)C(C)O2)c2c(cc3c(c2O)C(=O)c2c(O)cccc2C3=O)C1C(=O)OC (centres unmarked) [Aclacinomycin A, reference compound]	107%	125%	186%	196%	123%	Toxic	–	–	–	0.01 µg/mL (≈ 0.0123 µM)	–	0.3 µg/mL (≈ 0.37 µM)	0.04 µg/mL (≈ 0.0493 µM)	–	–	–	22.6	–	–	the least toxic and cardio-toxic among the hitherto-developed anthracycline antibiotics

— patent US4474945A, “Anthracycline antibiotics” (priority 1981, dated 1984)
